Assay results taken from PMC5506877 (Heliyon, 2017).
Values joined by “and” are separate entries in the source; they are usually repeats but may differ in a detail not shown here. Identical values can stand only once. Values belong to the compound of their own block, whether it stands above or below them.

Assays:
[1] = plasma protein binding by equilibrium dialysis; type: in vitro ADME, human; settings: for recovery at 24 h: pooled human plasma dialysed against PBS, human plasma / PBS after dialysis, read-out: recovery in the plasma protein binding (equilibrium dialysis) experiment
Procedure: Plasma was obtained by centrifugation (4 °C, 1600 g, 10 min, CF7D2, Hitachi Koki) of EDTA‐treated blood from three healthy male volunteers and was then pooled. […] Samples for M4 were mixed with deuterated M4 as an internal standard and acetonitrile/methanol (1:1, v/v). After centrifugation, the supernatant was injected into an LC/ESI-MS/MS system consisting of ACQUITY Ultra Performance LC (Waters) and API 4000 (AB Sciex) in positive-ion multiple-reaction monitoring (MRM) mode to measure M4 (Q1: m/z 457 and Q3: m/z 396) concentration. Chromatography was performed using ACQUITY UPLC BEH Phenyl (2.1 mm I.D. × 50 mm, 1.7 μm, Waters) at 60 °C; MP A: water/98% formic acid (1000/1, v/v), MP B: methanol/98% formic acid (1000/1, v/v), with a flow rate of 0.7 mL/min and a gradient program as follows: (time, % MP B): 0 min, 40%; 0.3 min, 40%; 1.9 min, 45%; 1.91 min, 90%; 2.20 min, 90%; 2.21 min, 40%; 2.70 min, stop. For the protein binding of M4, 1–5000 ng/mL in human plasma, and 0.5–2500 ng/mL in PBS were calibrated.
The recovery was calculated by the following equation.
Protein binding was calculated by the following equation.
Protein binding = (1−Cf/Cp) × 100 (%)
Where Cf and Cp represent the concentration in PBS and in plasma, respectively.

[2] = cited from earlier work
[3] = at pH 3.575; cited from earlier work
[4] = human ADME study: metabolite profiling in plasma, urine and faeces after single oral [14C]alectinib; type: in vivo
Procedure: Human plasma for protein binding was obtained from three healthy male volunteers. All participants provided written informed consent prior to study related procedures. The protocol of human ADME study was approved by the Independent Ethics Committee of the Stichting Beoordeling Ethiek Bio-Medisch Onderzoek (Assen, The Netherlands), and that of protein binding study was approved by Chugai IRB.
Plasma samples were pooled at 4 h and 6 h (4 h + 6 h), and 8 h and 12 h (8 h +12 h) across the six subjects. An 18-mL aliquot of pooled plasma was extracted with the same volume of acetonitrile twice, and then the extract was lyophilized. The resulting residue was further extracted with 3 mL of acetonitrile/water (9:1, v/v) twice and lyophilized again. The resulting residue was reconstituted with 900 μL of methanol/water (7:3, v/v) to obtain the supernatant as an HPLC sample in which plasma was 20-fold concentrated.
Urine samples were pooled at 0–24 h, and at 24–72 h across the six subjects. A 16-mL aliquot of pooled urine was concentrated 20-fold using the same process for plasma.
Faecal samples were pooled at 0–48 h, 48–96 h, and 96–168 h across the six subjects. One to two weight equivalents of water was added to the faecal samples and the samples were homogenized and mixed with the same volume of acetonitrile. After following the same procedure as for plasma, the residue was reconstituted with methanol/water (7:3, v/v) or dimethyl sulfoxide (DMSO) and centrifuged, and the faecal sample was concentrated 5-fold for use in analysis.
Alkaline Conditions: For metabolite profiling, the extracted samples from plasma, urine, and faeces were subjected to HPLC under alkaline conditions using XBridge™ Shield RP18, 3.5 μm, 4.6 × 150 mm (Waters), and a linear stepwise gradient with solvent A (consisting of water/30%trimethylamine at 100:0.1, v/v) and solvent B (consisting of acetonitrile/30%trimethylamine at 100:0.1, v/v), and a flow rate of 1 mL/min. Solvent B in the gradient started at 1% and then changed as follows: 30% (2 min), 60% (29 min), 98% (29.1 min), 98% (32 min), 1% (32.1 min), and 1% (40 min). The UV wavelength was set at 335 nm. […]
Plasma and Urine: To profile metabolites, 150 μL of the same HPLC sample of plasma or 100 μL of the same HPLC sample of urine was injected 3 separate time, and the eluates collected at 15-second intervals were combined to be measured by a liquid scintillation counter (LSC) (Tri-Carb 3100TR, PerkinElmer, Inc.) at a low level count mode for 10 min.
Faeces: A radiodetector (Radiomatic 625TR, PerkinElmer, Inc.) was used, and the area percentage of each radioactive peak on the radiochromatograms was calculated with analysis software (FLO-ONE Ver. 3.65, PerkinElmer, Inc.). […]

ALK = ALK (Homo sapiens, UniProt Q9UM73); experiment: inhibitory activity against ALK, cell-free TR-FRET kinase assay; type: biochemical; settings: 90 min at 30 °C, geometric mean of triplicates
Sequence of ALK (Q9UM73 19-1620): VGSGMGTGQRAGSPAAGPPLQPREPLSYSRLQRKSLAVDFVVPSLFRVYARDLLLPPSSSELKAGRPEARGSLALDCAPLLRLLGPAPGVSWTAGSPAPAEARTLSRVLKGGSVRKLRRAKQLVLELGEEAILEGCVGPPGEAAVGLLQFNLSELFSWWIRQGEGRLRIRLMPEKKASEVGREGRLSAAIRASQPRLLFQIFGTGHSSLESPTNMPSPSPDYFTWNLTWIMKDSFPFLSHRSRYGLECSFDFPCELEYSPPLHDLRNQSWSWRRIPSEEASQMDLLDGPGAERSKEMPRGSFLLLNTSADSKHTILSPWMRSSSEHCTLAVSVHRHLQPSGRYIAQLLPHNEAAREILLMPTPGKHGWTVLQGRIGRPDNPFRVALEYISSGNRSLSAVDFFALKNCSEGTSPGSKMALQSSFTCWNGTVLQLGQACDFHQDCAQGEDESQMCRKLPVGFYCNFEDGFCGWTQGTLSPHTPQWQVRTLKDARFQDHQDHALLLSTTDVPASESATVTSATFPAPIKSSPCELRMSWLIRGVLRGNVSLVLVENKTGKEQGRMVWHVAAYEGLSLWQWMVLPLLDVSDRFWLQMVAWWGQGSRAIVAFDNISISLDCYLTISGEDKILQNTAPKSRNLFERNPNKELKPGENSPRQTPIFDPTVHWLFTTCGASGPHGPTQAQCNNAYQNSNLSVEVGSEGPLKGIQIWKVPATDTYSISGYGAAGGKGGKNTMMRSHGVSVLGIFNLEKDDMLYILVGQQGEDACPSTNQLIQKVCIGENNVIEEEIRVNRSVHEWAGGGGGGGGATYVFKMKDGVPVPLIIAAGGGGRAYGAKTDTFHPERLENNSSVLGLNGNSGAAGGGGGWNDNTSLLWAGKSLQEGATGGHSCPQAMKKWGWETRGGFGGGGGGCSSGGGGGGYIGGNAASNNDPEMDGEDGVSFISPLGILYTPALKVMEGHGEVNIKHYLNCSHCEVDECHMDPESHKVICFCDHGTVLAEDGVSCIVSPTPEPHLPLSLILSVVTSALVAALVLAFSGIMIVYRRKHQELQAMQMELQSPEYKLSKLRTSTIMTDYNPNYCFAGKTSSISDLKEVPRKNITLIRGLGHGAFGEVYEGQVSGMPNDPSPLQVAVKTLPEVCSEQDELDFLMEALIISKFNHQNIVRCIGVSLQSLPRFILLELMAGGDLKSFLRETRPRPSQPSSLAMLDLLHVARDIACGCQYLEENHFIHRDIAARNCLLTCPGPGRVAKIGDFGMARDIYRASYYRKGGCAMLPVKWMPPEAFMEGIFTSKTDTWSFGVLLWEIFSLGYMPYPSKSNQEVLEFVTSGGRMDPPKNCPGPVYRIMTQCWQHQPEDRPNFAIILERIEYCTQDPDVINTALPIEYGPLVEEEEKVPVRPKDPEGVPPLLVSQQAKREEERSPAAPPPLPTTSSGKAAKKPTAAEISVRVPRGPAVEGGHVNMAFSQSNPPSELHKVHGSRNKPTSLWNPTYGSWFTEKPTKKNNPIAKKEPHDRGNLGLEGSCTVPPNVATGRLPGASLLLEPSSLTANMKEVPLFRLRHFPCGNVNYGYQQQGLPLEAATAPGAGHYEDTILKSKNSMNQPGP
Procedure: Solutions of test articles, substrate/ATP (2 μmol/L substrate peptide-0.2 mol/L HEPES buffer containing 60 μmol/L ATP, 20 mmol/L MgCl2, 0.2 mmol/L DTT, and 40 μmol/L Na3VO4) and the enzyme (final concentration of 200 ng/mL) were mixed in a clear-bottomed 384-well black plate and incubated for 90 min at 30 °C. After adding stop solution (100 mmol/L EDTA-0.1 mol/L HEPES buffer), TR-FRET reagent (2.5 nmol/L of LANCE® Eu-W1024-labeled anti-phosphotyrosine (PT66) and 6.25 μg/mL of Streptavidine SureLight® APC) was added and the time-resolved fluorescence was measured by EnVision HTS (Model 2104, PerkinElmer).

[5] = system: NCI-H2228 NSCLC cell line that harbours EML4-ALK fusion; experiment: cell growth inhibition, CellTiter-Glo, NCI-H2228 spheroid culture; type: cell-based; settings: for IC50: Homo sapiens
Procedure: Then test article solutions were added and the cell viability was measured after a 120-h incubation in a CO2 incubator. The luminescence was measured by EnVision HTS and the cell viability was calculated.

[6] = male, human, plasma, human plasma, 37 °C 24 h dialysis, mean ± SD of triplicates
[7] = NCI-H2228 cells, 120-h incubation, geometric mean of triplicates
[8] = human, single oral 600 mg/67 μCi [14C]alectinib, pooled across n = 6, ND: Not detected

human plasma protein binding over the range of concentration investigated ([1]; human plasma, all concentrations investigated): higher than 99%
fraction unbound at 24 h, 0.1 μg/mL ([1]; male, human, plasma, human plasma, 0.1 μg/mL, 37 °C 24 h dialysis, mean ± SD of triplicates): 0.004
fraction unbound at 24 h, 1 μg/mL [1, 6]: 0.003
fraction unbound at 24 h, 10 μg/mL ([1]; male, human, plasma, human plasma, 10 μg/mL, 37 °C 24 h dialysis, mean ± SD of triplicates): 0.003
recovery at 24 h ([1]; male): 85 ± 1.7%
Compound: CCc1cc2c(cc1N1CCC(N3CCOCC3)CC1)C(C)(C)c1[nH]c3cc(C#N)ccc3c1C2=O [Alectinib, 9-ethyl-6,6-dimethyl-8-(4-morpholino-1-piperidyl)-11-oxo-5H-benzo[b]carbazole-3-carbonitrile, reference compound]
Cmax in plasma ([2]; human ADME study, 600 mg oral [14C]alectinib): 175 ng/mL
recovery of radioactivity within excretion in faeces ([2]; human, up to 168 h post-dose, % of dose administered): 97.8%
recovery of radioactivity within excretion in urine ([2]; human, up to 168 h post-dose): 0.5%
logD [3]: 1.96

ratio of M1a peak to M1b peak, radiochromatogram ([4]; human faeces 48–96 h, fractionated M1, acidic HPLC conditions, radioactivity): 1 to 9 and 1/9
ratio of M1a to M1b, extracted ion chromatogram (XIC) ([4]; human faeces 48–96 h, fractionated M1, acidic conditions, [M + H]+): 1 to 3 and 1/3
ratio of M1a to M1b in the XIC, plasma ([4]; human plasma, LC-MS acidic conditions): 1/8
ratio of M1a to M1b in the XIC, urine ([4]; human urine, LC-MS acidic conditions): 1/10
Compound: CCc1cc2c(cc1N1CCC(NCCOCC(=O)O)CC1)C(C)(C)c1[nH]c3cc(C#N)ccc3c1C2=O [M1a]

IC50 (ALK): 1.6 nM
IC50 [5, 7]: 320 nM
IC50 Cell growth [5, 7]: much weaker effect
fold shift in IC50 from the ALK enzyme inhibition assay to the cell growth inhibition assay ([5]; cell medium contained 10% FBS): ~200 fold
Compound: CCc1cc2c(cc1N1CCC(N(CCO)CC(=O)O)CC1)C(C)(C)c1[nH]c3cc(C#N)ccc3c1C2=O [M1b]

fraction unbound at 24 h, 0.3 μg/mL ([1]; male, human, plasma, human plasma, 0.3 μg/mL, 37 °C 24 h dialysis, mean ± SD of triplicates): 0.009
fraction unbound at 24 h, 1 μg/mL [1, 6]: 0.005
fraction unbound at 24 h, 2 μg/mL ([1]; male, human, plasma, human plasma, 2 μg/mL, 37 °C 24 h dialysis, mean ± SD of triplicates): 0.005
fraction unbound at 24 h ([1]; male, human, plasma, human plasma, all concentrations investigated, read-out: human plasma protein binding over the range of concentration investigated): < 0.01
recovery at 24 h ([1]; male): 82.7 ± 2.5%
IC50 (ALK): 1.2 nM
IC50 [5, 7]: 37 nM
Compound: CCc1cc2c(cc1N1CCC(NCCO)CC1)C(C)(C)c1[nH]c3cc(C#N)ccc3c1C2=O [M4, 9-ethyl-8-[4-(2-hydroxyethylamino)-1-piperidyl]-6,6-dimethyl-11-oxo-5H-benzo[b]carbazole-3-carbonitrile]
AUC ratio for the percentage of total drug-related systemic exposure ([2]; human plasma, LC/MS drug concentration vs total radioactivity): 15%
amount of metabolite in faecal samples, % of the dose administered ([2]; human, faeces, single oral [14C]alectinib): 5.8%
Percentage of drug related compound in analytical sample, Faeces 0–48 h [2, 8]: 1.1%
Percentage of drug related compound in analytical sample, Faeces 48–96 h [2, 8]: 11.0%
Percentage of drug related compound in analytical sample, Faeces 96–168 h [2, 8]: 37.3%
Percentage of drug related compound in analytical sample, Plasma 4 h + 6 h [2, 8]: 7.0%
Percentage of drug related compound in analytical sample, Plasma 8 h + 12 h [2, 8]: 9.9%
Percentage of drug related compound in analytical sample, Urine 0–24 h [2, 8]: 9.0%
Percentage of drug related compound in analytical sample, Urine 24–72 h [2, 8]: 24.2%

Compound: CCc1cc2c(cc1N1CCC(N)CC1)C(C)(C)c1[nH]c3cc(C#N)ccc3c1C2=O [M6, 8-(4-amino-1-piperidyl)-9-ethyl-6,6-dimethyl-11-oxo-5H-benzo[b]carbazole-3-carbonitrile]
Percentage of drug related compound in analytical sample, Faeces 96–168 h [2, 8]: 5.6%
